Test system: PD patients
Conditions: without light therapy, in a short time

[HH] [hydrogen, Molecular hydrogen]
effectiveness of hydrogen therapy alone: not that effective
